Source: patent US20260015325A1, “ALKOXY HETEROARYL- CARBOXAMIDE OR THIOAMIDE COMPOUNDS” (SYNGENTA CROP PROTECTION AG, priority 2022, published 2026)

Tested on: Myzus persicae (Green Peach Aphid)
Test: Myzus persicae (Green Peach Aphid): feeding/contact activity, eggplant leaf discs
Assay type: in vivo
Details: foliar, 144 h, application rate of 200 ppm, mixed ages on sprayed eggplant leaf discs, 6 days after infestation, read-out: growth inhibition
Method: Example B12: Myzus persicae (Green Peach Aphid) Feeding/Contact Activity Eggplant leaf discs were placed onto agar in a 24-well microtiter plate and sprayed with aqueous test solutions prepared from 10′000 ppm DMSO stock solutions. After drying, the leaf discs were infested with an aphid population of mixed ages. The samples were assessed for mortality 6 days after infestation.

Compound: C[C@@H](COc1cc(C(=O)NC2(C#N)CC2)c(Cl)nn1)NS(=O)(=O)C(F)(F)F [Compound P89, 3-chloro-N-(1-cyanocyclopropyl)-6-[(2S)-2-(trifluoromethylsulfonylamino)propoxy]pyridazine-4-carboxamide]
- inhibition at 200 ppm: ≥ 80%
